Experiments:
[1] = tested on: C26-injected mice; assay: C26 tumor-induced cancer cachexia mouse model with oral amiodarone; type: in vivo
Procedure: Murine colon 26 adenocarcinoma cells (C26) were cultured in DMEM containing 10% fetal bovine serum, 100 U/ml penicillin, and 100 μg/ml streptomycin. For in vivo inoculation, a single suspension of 7×10^6 cells in 100 μl of physiological saline was injected subcutaneously into the right flank of the BALB/c mice. The same volume of physiological saline was injected into the control groups.
In cachexia+/−Amiodarone experiments, mice were treated for 18 days with Amiodarone and were sacrificed 7 days post induced-cachexia. Amiodarone was given from […] (day 1 is the day of cells injection).
(§1) Mice (C57BL6 mice) were treated with 0.45 mg/ml Amiodarone (Sigma, A8423, St. Louis, MO, USA) (Bagchiet al., Circulation Research 1987; 60:621-625; Lee et al., Oncotarget, 2015; 6(40): 42976-42987) in drinking water ad libitum starting 1 week before the induced-denervation or cachexia, until sacrifice.
(§2) Preparation of amiodarone: 45 mg dissolved in 1 ml of water for 10 minutes at 80° C.
In tumor-induced cachexia mice models, mice were treated with oral amiodarone for 18 days (−7/+11 relative to C26 injection) (FIG. 10A). Matched group of amiodarone-treated and control mice were injected with C26 cells, and muscle wasting was monitored to different days following injection.

[2] = tested on: denervated mice; assay: Denervation (sciatic nerve transection) muscle wasting mouse model with oral amiodarone; type: in vivo
Procedure: Animals were anesthetized by a ketaminexylazine cocktail and a small incision ([…]) was made in the left tight skin. The sciatic nerve was exposed with the help of a small surgical hook and then cut before the separation of sciatic nerve branches. A small (2-5 mm) nerve section was removed to prevent re-innervation. Denervation was performed unilaterally, using the contralateral hindlimb as a negative control. Tissues were collected 2, 6, 12 or 15 days after denervation surgery.
In denervation+/−Amiodarone experiments, mice were treated for 13 days with Amiodarone and were sacrificed 5 days post induced-denervation (from day −7 up day+5 upon denervation).
as §1, §2
In denervation mice models, mice were treated with oral amiodarone for 13 days (from day −7 up day+5 upon denervation).

[3] = tested on: DysE17 flies; assay: Climbing assay (negative geotaxis) in dystrophic Drosophila fed amiodarone; type: in vivo, Drosophila melanogaster
Source text: The genetic loss-of-function homozygous Drosophila mutant for dystrophin (dys), DysE17 (hiips://flybase.org/reports/FBal0241311.html) was employed as a Duchenne muscular dystrophy model, which carries a point mutation on chromosome 3 (location: 92A10, 3R:19,590,458 . . . 19,590,458) causing a nucleotide change C19590458T and consequently the amino acid change Q2807term|Dys-PA. This is a termination codon determining full-length dys protein to be abnormally shortened. As control, the wild-type Oregon-R strain was used.
The adult wild-type animals and mutant fruit flies were treated with amiodarone at increasing concentrations, supplemented in the food for 30 days.
Eclosed Oregon-R and homozygous DysE17 Drosophila (1-2 days of adult age) were placed in vials (10-15 animals/vials) and reared on 4-5 ml of either the standard medium or medium supplemented with amiodarone at increasing doses (100 nM, 1 μM, 10 μM, 20 μM, and 50 μM). Food was replaced each 5 days. Amiodarone-supplemented diets were freshly prepared by mixing amiodarone with appropriate amounts of standard food just before the administration to animals. At least 3 vials per group were prepared within each experiment. Each experiment was repeated 3 or more times: in total, a minimum of 60 animals per experimental condition was analysed.
• Oregon-R receiving vehicle (DMSO 1:1000); • DysE17 flies receiving vehicle (DMSO 1:1000); • DysE17 flies receiving 100 nM amiodarone; • DysE17 flies receiving 1 μM amiodarone; • DysE17 flies receiving 10 μM amiodarone; • DysE17 flies receiving 20 μM amiodarone; • DysE17 flies receiving 50 μM amiodarone.
Flies were treated for 30 days (treatments ended when animals reached 30 days of adult age), with food renewal each 5 days.
Geotaxis was assessed using a climbing assay (negative geotaxis reflex in opposition to the Earth's gravity). A horizontal line was drawn 15 cm above the bottom of the vial. After a 10 minutes rest period, the flies were tapped to the bottom of the vials: all flies were forced to start climbing (vertical walking). The number of flies that climbed up to the 15 cm mark after 60 seconds was recorded as the percentage success rate. A camera recorded fly movement during the experiment. Each trial was performed three times, at one-minute intervals, and the results averaged. Climbing performance was assessed each 5 days starting from day 1-2 of adult age (just after eclosion) and ending at 30 days.
For the validation study, the climbing efficiency and muscle structure of adult wild-type animals and DysE17 mutants were analyzed after food supplementation with amiodarone at increasing concentrations for 0-30 days (geotaxis assay).

[4] = tested on: mice with CTX-injured tibialis anterior (TA) muscle; assay: Muscle regeneration after cardiotoxin (CTX) injury in rT3-treated mice; type: in vivo, mouse
Procedure: Animals were anesthetized by a ketaminexylazine cocktail, and 12,5 μl of 60 μg/ml CTX (Naja mossambica mossambica, Sigma-Aldrich) was injected into and along the length of the right tibialis anterior (TA) (Yan, 2003 J Biol Chem 278(10): 8826-8836) and 25 μl into gastrocnemius muscle. CTX was injected on different day from Tam.
The tibialis anterior (TA) muscles were dissected and fixed in isopentane in liquid nitrogen, and sliced into 7 μm sections. The cross-sectional area was analyzed and quantified using CellF*Olympus Imaging Software.
Dissected muscles were snap frozen in liquid nitrogen-cooled isopentane, sectioned (7 μm thick) and stained. For immunofluorescent staining, cells or section were fixed with 4% formaldehyde (PFA) and permeabilized in 0.1% Triton X-100, then blocked with 0.5% goat serum and incubated with primary antibody. Alexa Fluor™ 594/647-conjugated secondary antibody was used. Images were acquired with an IX51 Olympus microscope and the Cell*F software. For hematoxylin/eosin staining (H&E), sections were fixed for 15 min and placed in hematoxylin for 5 min followed washed, and 5 min in Eosin.
(§3) In vivo: mice (C56BL6 mice) were treated systemically with an i.v. injection of 100 μl of 30 ng/μl rT3 (Sigma Aldrich) or PBS vehicle control to consecutive 4 days.
To therapeutically exploit the capacity of D2-depletion to activate stem cells and accelerate muscle tissue repair, mice were treated with oral reverse triiodothyronine (rT3, a specific D2-inhibitor) for 7 days (−5/+2 relative to CTX injury) (FIG. 7A).

[5] = tested on: mice with full-thickness skin wounds; assay: Skin wound healing in rT3-treated mice; type: in vivo, mouse
Procedure: The back fur of mice was shaved and the skin was cleaned with 70% alcohol. The dorsal skin was pulled using forceps and two 8-mm full-thickness skin wounds were created along the midline using a sterile 8 mm circular biopsy punch by pressing through both layers of the skin pull. Skin wound healing was measured every 2-3 days by anesthetizing the animals and imaging the wounded area.
Excisional, full-thickness skin wounds were aseptically made on the dorsal skin by picking up a fold skin at the midline and using a sterile, disposable biopsy punch with a diameter of 8 mm to punch through the two layers of skin. In this manner, two wounds were made on each side of the midline at the same time. Each wound site was digitally photographed using the Nikon FX-35A at the indicated time intervals, and wound areas were determined on photographs using CellF*. Changes in wound areas were expressed as the percentage of the initial wound areas.
as §3
In a similar setting, the present inventors also tested whether D2 inhibition positively affected wound regeneration in skin.

[6] = tested on: pp6 cells; assay: TNFα-induced cell death (PARP immunoblot) in muscle cells with or without rT3; type: cell-based, mouse; conditions: TNFα 24 h; rT3 30 nM
Procedure: Primary muscle cultures (pp6) were isolated as described (Qu et al., 1998 J Cell Biol 142(5): 1257-1267) from the indicated mouse lines. Immortalized myoblasts (C2C12) were obtained from ATCC. Proliferating cells were cultured in 20% Fetal Bovine Serum Dulbecco's modified Eagle's medium at 37° C. with penicillin/streptomycin. Transient transfections were performed using Lipofectamine 2000 (Life Technologies) according to the manufacturer's instructions. Anti-MyoD (sc-304) and tubulin (sc-8035) antibodies were purchased from Santa Cruz Biotechnology. Anti-Pax7 antibody were from Developmental Studies Hybridoma Bank. Anti-PARP was from Cell Signaling Technology.
Total protein extracts from cells and tissues were run on a 10% sodium dodecyl sulfate-polyacrylamide gel electrophoresis gel and transferred to an Immobilon-P transfer membrane (Millipore, Billerica, MA). The membrane was then blocked with 5% nonfat dry milk in phosphate buffered saline, probed with the primary antibody, washed and incubated with horseradish peroxidase-conjugated donkey anti-rabbit or mouse immunoglobulin G secondary antibody (1:3000), and detected by chemiluminescence (Millipore). After extensive washing, the membrane was incubated with antitubulin-specific or ERK antibody (1:10,000; sc-8035, Santa Cruz, Dallas, TX) as loading control.
In vitro: Pp6 or C2C12 cells were treated with rT3 (30 nM) […]

[7] = TA muscle, 11 days after C26 cells injection, vs control
[8] = gastrocnemius, oral amiodarone 13 days (day −7 to +5 upon denervation), vs control
[9] = 7 days post-CTX, oral rT3 for 7 days (−5/+2 relative to CTX injury), vs control

## CCCCc1oc2ccccc2c1C(=O)c1cc(I)c(OCCN(CC)CC)c(I)c1 [Amiodarone (AMIO), Amiodarone]
[1]; [7]
  Atrogin-1 mRNA expression: potently down-regulated
  MuRF-1 mRNA expression: potently down-regulated
[1]; after C26 cells injection, control mice about 12.7 days
  survival: > 27 days
[1]; amiodarone-treated vs control mice, 11 days after C26 cells injection
  tumor weight: no significant effects
[1]; oral amiodarone for 18 days (−7/+11 relative to C26 injection), vs control
  muscle wasting (body, heart, TA and GC weight): preserved from massive muscle wasting
[2]; after denervation, oral amiodarone 13 days
  muscle wasting (gastrocnemius muscle mass): preserved from massive muscle wasting
[2]; [8]
  Atrogin-1 mRNA expression: potently down-regulated
  MuRF-1 mRNA expression: potently down-regulated
[3]; after 25-30 days of treatment
  functional deficits vs untreated Dys animals: the same functional deficits
[3]; amiodarone 10 μM for 15 days, untreated Dys 35%
  damaged animals (climbing decay): 18%
[3]; amiodarone 10 μM for 20 days, untreated Dys 55%
  damaged animals (climbing decay): 32%
[3]; doses 100 nM to 50 μM in food, 30 days
  most effective concentration on fly mobility: 10 µM
[3]; dystrophic mutant flies, chronic amiodarone
  muscle structure of functionally recovered muscles: still compromised at structural level
[3]; higher concentrations, 20-50 μM
  effect on climbing decay of dystrophic animals: did not alter the climbing decay
[3]; increasing doses from 100 nM to 10 μM
  effect on fly mobility: dose-dependent beneficial effect
[3]; treatment shorter than 15 days (10 days)
  effect on mobility at shorter times: no effects

## N[C@@H](Cc1ccc(Oc2cc(I)c(O)c(I)c2)c(I)c1)C(=O)O [Reverse triiodothyronine (rT3), 3,3′5′-triiodothyronine]
[4]; [9]
  fiber size (cross-sectional area): smaller than control
  number of fibers (H&E): increased number of fibers
[4]; 21 days after injury, rT3 for 7 days, vs control
  fiber size (cross-sectional area): larger fibers
[4]; TA sections, rT3 treated mice vs control
  Pax7+/EdU+ cells: increased than control
[5]; later time points following skin wounding (28 days post-injury)
  regrowth of hair in the shaved area: more complete regrowth of hair
[5]; rT3-treated mice vs control
  wound repair: more rapidly and efficiently than control
[6]
  TNFα-induced apoptosis: protected from apoptosis

From patent US20240293441A1, “NEW THERAPEUTIC USE OF TYPE 2 IODOTHYRONINE DEIODINASE (D2) INHIBITORS” (MATERIAS S.R.I, priority 2021, published 2024)
